{
  "source": "PubChem BioAssay (NCI)",
  "test_in_all_cases": "growth of human tumour cells (NCI), 384-well format",
  "key": {"ACHN renal": {"system": "ACHN renal"}, "HL-60(TB) leukemia": {"system": "HL-60(TB) leukemia"}, "HOP-62 NSCLC": {"system": "HOP-62 NSCLC"}, "HCT-15 colon": {"system": "HCT-15 colon"}, "MDA-MB-231 breast": {"system": "MDA-MB-231 breast"}, "HOP-92 NSCLC": {"system": "HOP-92 NSCLC"}, "TK-10 renal": {"system": "TK-10 renal"}, "DU-145 prostate": {"system": "DU-145 prostate"}, "MDA-MB-435 melanoma": {"system": "MDA-MB-435 melanoma"}, "A549 NSCLC": {"system": "A549 NSCLC"}, "NCI-H322M lung": {"system": "NCI-H322M lung"}, "CCRF-CEM leukemia": {"system": "CCRF-CEM leukemia"}, "BT-549 breast": {"system": "BT-549 breast"}, "CAKI-1 renal": {"system": "CAKI-1 renal"}, "OVCAR-5 ovarian": {"system": "OVCAR-5 ovarian"}, "786-0 renal": {"system": "786-0 renal"}, "UO-31 renal": {"system": "UO-31 renal"}, "NCI-H226 lung": {"system": "NCI-H226 lung"}, "COLO 205 colon": {"system": "COLO 205 colon"}, "MOLT-4 leukemia": {"system": "MOLT-4 leukemia"}, "IGROV1 ovarian": {"system": "IGROV1 ovarian"}, "K-562 leukemia": {"system": "K-562 leukemia"}, "SK-MEL-2 melanoma": {"system": "SK-MEL-2 melanoma"}, "MCF7 breast": {"system": "MCF7 breast"}, "SNB-19 CNS": {"system": "SNB-19 CNS"}, "NCI/ADR-RES ovarian": {"system": "NCI/ADR-RES ovarian"}, "A498 renal": {"system": "A498 renal"}, "SF-268 CNS": {"system": "SF-268 CNS"}, "UACC-62 melanoma": {"system": "UACC-62 melanoma"}, "UACC-257 melanoma": {"system": "UACC-257 melanoma"}},
  "note": "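GI50: concentration for 50% inhibition of growth. TGI marks complete inhibition of growth.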",
  "data": [
    {"smiles": "CC1(C)CC[C@H](Nc2ncc(C(F)(F)F)c(-c3c[nH]c4c(P(C)(C)=O)c(C#N)ccc34)n2)CN1", "values": [
      {"measurement": "GI50", "setting": "ACHN renal", "result": 73.6, "unit": "nM"},
      {"measurement": "TGI", "setting": "ACHN renal", "result": 8.68, "unit": "µM"},
      {"measurement": "GI50", "setting": "HL-60(TB) leukemia", "result": "< 10", "unit": "nM"},
      {"measurement": "TGI", "setting": "HL-60(TB) leukemia", "result": 126, "unit": "nM"},
      {"measurement": "GI50", "setting": "HOP-62 NSCLC", "result": "< 10", "unit": "nM"},
      {"measurement": "TGI", "setting": "HOP-62 NSCLC", "result": 18.2, "unit": "nM"},
      {"measurement": "GI50", "setting": "HCT-15 colon", "result": 65.9, "unit": "nM"},
      {"measurement": "TGI", "setting": "HCT-15 colon", "result": 4.37, "unit": "µM"},
      {"measurement": "GI50", "setting": "MDA-MB-231 breast", "result": 1190, "unit": "nM"},
      {"measurement": "TGI", "setting": "MDA-MB-231 breast", "result": 10.3, "unit": "µM"},
      {"measurement": "GI50", "setting": "HOP-92 NSCLC", "result": 2310, "unit": "nM"},
      {"measurement": "TGI", "setting": "HOP-92 NSCLC", "result": 11.6, "unit": "µM"},
      {"measurement": "GI50", "setting": "TK-10 renal", "result": 887, "unit": "nM"},
      {"measurement": "TGI", "setting": "TK-10 renal", "result": 10.4, "unit": "µM"},
      {"measurement": "GI50", "setting": "DU-145 prostate", "result": "< 10", "unit": "nM"},
      {"measurement": "TGI", "setting": "DU-145 prostate", "result": 3.79, "unit": "µM"},
      {"measurement": "GI50", "setting": "MDA-MB-435 melanoma", "result": 114, "unit": "nM"},
      {"measurement": "TGI", "setting": "MDA-MB-435 melanoma", "result": 2720, "unit": "nM"},
      {"measurement": "GI50", "setting": "A549 NSCLC", "result": 66.3, "unit": "nM"},
      {"measurement": "TGI", "setting": "A549 NSCLC", "result": 12, "unit": "µM"},
      {"measurement": "GI50", "setting": "NCI-H322M lung", "result": 644, "unit": "nM"},
      {"measurement": "TGI", "setting": "NCI-H322M lung", "result": 3.14, "unit": "µM"},
      {"measurement": "GI50", "setting": "CCRF-CEM leukemia", "result": 54.6, "unit": "nM"},
      {"measurement": "TGI", "setting": "CCRF-CEM leukemia", "result": 1360, "unit": "nM"},
      {"measurement": "GI50", "setting": "BT-549 breast", "result": 11.3, "unit": "nM"},
      {"measurement": "TGI", "setting": "BT-549 breast", "result": 205, "unit": "nM"},
      {"measurement": "GI50", "setting": "CAKI-1 renal", "result": 38.8, "unit": "nM"},
      {"measurement": "TGI", "setting": "CAKI-1 renal", "result": 12.3, "unit": "µM"},
      {"measurement": "GI50", "setting": "OVCAR-5 ovarian", "result": 182, "unit": "nM"},
      {"measurement": "TGI", "setting": "OVCAR-5 ovarian", "result": 9.82, "unit": "µM"},
      {"measurement": "GI50", "setting": "786-0 renal", "result": "< 10", "unit": "nM"},
      {"measurement": "TGI", "setting": "786-0 renal", "result": 6.18, "unit": "µM"},
      {"measurement": "GI50", "setting": "UO-31 renal", "result": 335, "unit": "nM"},
      {"measurement": "TGI", "setting": "UO-31 renal", "result": 8.12, "unit": "µM"},
      {"measurement": "GI50", "setting": "NCI-H226 lung", "result": 577, "unit": "nM"},
      {"measurement": "TGI", "setting": "NCI-H226 lung", "result": 12.6, "unit": "µM"},
      {"measurement": "GI50", "setting": "COLO 205 colon", "result": "< 10", "unit": "nM"},
      {"measurement": "TGI", "setting": "COLO 205 colon", "result": 1450, "unit": "nM"},
      {"measurement": "GI50", "setting": "MOLT-4 leukemia", "result": "< 10", "unit": "nM"},
      {"measurement": "TGI", "setting": "MOLT-4 leukemia", "result": "< 10", "unit": "nM"},
      {"measurement": "GI50", "setting": "IGROV1 ovarian", "result": "< 10", "unit": "nM"},
      {"measurement": "TGI", "setting": "IGROV1 ovarian", "result": 13.8, "unit": "µM"},
      {"measurement": "GI50", "setting": "K-562 leukemia", "result": "< 10", "unit": "nM"},
      {"measurement": "TGI", "setting": "K-562 leukemia", "result": 11.2, "unit": "µM"},
      {"measurement": "GI50", "setting": "SK-MEL-2 melanoma", "result": 1220, "unit": "nM"},
      {"measurement": "TGI", "setting": "SK-MEL-2 melanoma", "result": 3.17, "unit": "µM"},
      {"measurement": "GI50", "setting": "MCF7 breast", "result": "< 10", "unit": "nM"},
      {"measurement": "TGI", "setting": "MCF7 breast", "result": 1450, "unit": "nM"},
      {"measurement": "GI50", "setting": "SNB-19 CNS", "result": 1000, "unit": "nM"},
      {"measurement": "TGI", "setting": "SNB-19 CNS", "result": 12.8, "unit": "µM"},
      {"measurement": "GI50", "setting": "NCI/ADR-RES ovarian", "result": 2500, "unit": "nM"},
      {"measurement": "TGI", "setting": "NCI/ADR-RES ovarian", "result": 12.6, "unit": "µM"},
      {"measurement": "GI50", "setting": "A498 renal", "result": 19.7, "unit": "nM"},
      {"measurement": "TGI", "setting": "A498 renal", "result": 6.54, "unit": "µM"},
      {"measurement": "GI50", "setting": "SF-268 CNS", "result": 132, "unit": "nM"},
      {"measurement": "TGI", "setting": "SF-268 CNS", "result": 1990, "unit": "nM"},
      {"measurement": "GI50", "setting": "UACC-62 melanoma", "result": "< 10", "unit": "nM"},
      {"measurement": "TGI", "setting": "UACC-62 melanoma", "result": 30.9, "unit": "nM"},
      {"measurement": "GI50", "setting": "UACC-257 melanoma", "result": 1020, "unit": "nM"}
    ]}
  ]
}
